Laboratory results taken from patent US7427395B2, “Chemotherapeutic agent-incorporated pharmaceutical preparation” (Genomidea Inc., priority 2002, dated 2008).
Read-outs that look alike come from different tables or passages of the source.

Assays:
colon carcinoma CT26 = experiment: In vivo experiment: tumor volume of subcutaneously transplanted CT26 after administration into the tumor (Example 2); conditions: for average tumor volume (mean): 100 μl/mouse into the tumor, n=8
Procedure: A microtube containing the sample was centrifuged at 15,000 rpm for 15 minutes at 4° C. to give the HVJ-E vector as a precipitate, and the supernatant was removed. […] Further, 2 μl of 3% Triton-X100 was added thereto to the final concentration of 0.1%, which was then kept on ice for 15 minutes. Thereafter, 500 μl PBS solution was added thereto. The microtube was centrifuged at 15,000 rpm for 15 minutes at 4° C., and the supernatant was removed without removing the precipitate, and 500 μl PBS solution was added thereto. The microtube was centrifuged again at 15,000 rpm for 15 minutes at 4° C., and the supernatant was removed without removing the precipitate. The resulting precipitate was suspended in 120 μl PBS.
In this animal experiment, BALB/c mice (8-week-old, male) were used. […] The CT-26 cells to be transplanted were suspended in DMEM medium containing 10% FCS, and 5×10^6 cells (100 μl PBS/mouse) were transplanted in the back. The mice were anesthetized by intraperitoneal administration of 500 μl of 20-fold-diluted Nembutal injection. The volume of the transplanted cancer cells was estimated by calculation of major axis×minor axis×minor axis/2. When the diameter of the tumor reached 7 to 8 mm one week after transplantation, 100 μl of the sample prepared above was administered into the site of the cancer in the mouse. On Days 7, 10, 13, 16 and 19 (that is, 3-day intervals) after transplantation of the cancer cells, the tumor diameter was measured to evaluate the anticancer effect. The number of animals was 8 in each group.

[1] = system: mouse colon carcinoma cell CT26; conditions: 30 min at 37° C., counted 2 days later
Procedure: A microtube containing the sample was centrifuged at 15,000 rpm for 15 minutes at 4° C. to give the HVJ-E vector as a precipitate, and the supernatant was removed. […] Further, 2 μl of 3% Triton-X100 was added thereto to prepare a sample containing Triton-X100 at a final concentration of 0.1%, which was then left on ice for 15 minutes. Thereafter, 500 μl PBS solution was added thereto. The microtube was centrifuged at 15,000 rpm for 15 minutes at 4° C., and the supernatant was removed without removing the precipitate, and 500 μl PBS solution was added again to the precipitate. The microtube was centrifuged again at 15,000 rpm for 15 minutes at 4° C., and the supernatant was removed without removing the precipitate.
The resulting precipitate was suspended in 180 μl PBS, and the resulting sample solution was pipetted in a volume of 30 μl/microtube into 6 microtubes. Five microlitters of protamine sulfate solution prepared at 5 mg/ml and 500 μl DMEM solution (Dulbecco's modified Eagle medium) were added to each tube.
The above sample solution was added to mouse colon carcinoma cell CT26 prepared on a 6-well plate. The plate was kept for 30 minutes in an incubator at 37° C., and then the medium was exchanged with 500 μl medium (DMEM containing 10% FCS). The cells were incubated for 2 days in a CO2 incubator at 37° C. Two days later, the number of viable cells was counted to evaluate the anticancer effect.

[2] = system: Mouse colon cancer-derived CT-26 cells; experiment: In vivo experiment (2): tumor volume and tumor weight of transplanted CT-26, HVJ-E/BLM into the tumor with or without intraperitoneal CDDP (Example 3); set-up: species or system BALB/cAnNCrj male mice
[3] = Day 16 (9 days after sample administration)

Molecule	average tumor volume (mean) (colon carcinoma CT26; Day 7 (time of sample administration)) [mm^3]	average tumor volume (mean) (colon carcinoma CT26; Day 10 (Day 3 after sample administration)) [mm^3]	average tumor volume (mean) (colon carcinoma CT26; Day 13) [mm^3]	tumor volume shrinkage effect relative to the PBS administration group (0%) (colon carcinoma CT26; [3]) [%]	average tumor volume (mean) (colon carcinoma CT26; [3]) [mm^3]	average tumor volume (mean) (colon carcinoma CT26; Day 16 (9 days after sample administration), listed as BLM)	antitumor effect in vivo (in words) (colon carcinoma CT26; direct administration into the solid tumor)	Number of viable cells (mean) ([1]; 1/50 bleomycin group: bleomycin 50 μg/DMEM 500 μl/well)	Number of viable cells (mean) ([1]; 1/500 bleomycin group: bleomycin 5 μg/DMEM 500 μl/well)	Number of viable cells (mean) ([1]; 1/500 bleomycin group: bleomycin 5 μg/DMEM 500 μl/well, listed as bleomycin)	Number of viable cells (mean) ([1]; 1/5,000 bleomycin group: bleomycin 500 ng/DMEM 500 μl/well)	Number of viable cells (mean) ([1]; 1/5,000 bleomycin group: bleomycin 500 ng/DMEM 500 μl/well, listed as bleomycin)	tumor weight on Day 21 after administration ([2]; CDDP 0.2 mg/body i.p. once, alone or with 13 mg/tumor HVJ-E/BLM into the tumor) [mg]	average tumor volume on Day 21 ([2]; CDDP 0.2 mg/body i.p. once, alone or with 13 mg/tumor HVJ-E/BLM into the tumor, 10 mice) [mm^3]	tumor weight on Day 21 after administration ([2]; CDDP 0.4 mg/body i.p. once, alone or with HVJ-E into the tumor) [mg]	average tumor volume on Day 21 ([2]; CDDP 0.4 mg/body i.p. once, 3 mice) [mm^3]
bleomycin	158.4	413.70	754.7	3.4	1234.6	1,235 mm^3	Antitumor effect was hardly recognized	81800	164600	164,600	196800	196,800	–	–	–	–
[NH2][Pt]([NH2])([Cl])[Cl] [CDDP, cisplatin]	–	–	–	–	–	–	–	–	–	–	–	–	1619.79	1720.14	1164.13	1367.62
